# Assay results as given in patent publication US11137396B2, “In vitro assays for assessing cell aging” (METAFORA BIOSYSTEMS, priority 2014, dated 2021).
# Tested on: hMSCs derived from ES cells
# Assay: XPR1/Glut1 ratio in senescence accelerated-model induced by mitomycin C (RBD labelling, flow cytometry)
# Format: cell-based, human
# Settings: 1 or 10 μg/mL MMC for 3 hours, then 4 additional days; ES-derived hMSC; FIG. 5
# Description: 80% confluent hMSCs derived from ES cells were treated for 3 hours with 1 or 10 μg/mL of mitomycin C (MMC, Sigma) or none (control cells). After the pulse of MMC, the cells were washed twice with PBS, detached with TrypLE Express for 5 minutes à 37° C. and re-plated in flasks for 4 additional days at the end of which the cells were detached for RBD labelling and the doubling time (h) was determined by counting.
# 3·10^4 cells were used for each binding and were transferred into a 96-well V-shape microplate. RBDs were premixed pairwise (Glut1.RBD.mouseFc and Xeno.RBD.rabbitFc) in culture medium containing 0.1% sodium azide and 1 mM EDTA. RBDs were added to hMSCs and incubated at 37° C. for 20 minutes. Cells were washed once with buffer B (PBS/2% FCS/0.1% sodium azide/1 mM EDTA) and then incubated with Alexa Fluor 647 goat anti-rabbit IgG (Life Technologies, 1/1 000) and R-PE goat anti-mouse IgG1 (Life technologies, 1/100) in buffer B. After 30 minutes of incubation at 4° C. in the dark, the cells were washed twice and resuspended in buffer B before flow cytometry analysis. Fluorescent signals were acquired on a FACSVerse flow cytometer (BD Biosciences) with 405, 488 and 640 nm excitation, and data analysis was performed using Flowjo software (Tree Star Inc.).
# “Fluorescence minus One” controls were used to establish background level in RBD channels (R-PE and AF647). […]
smiles,measurement,value
"CO[C@@]12[C@H](COC(N)=O)C3=C(C(=O)C(C)=C(N)C3=O)N1C[C@@H]1N[C@@H]12 [Mitomycin C, mitomycin C]",XPR1/Glut1 ratio normalized to the control condition,increases the XPR1/Glut1 ratio in a dose-dependant manner
